According to ChEMBL document CHEMBL3227937, “2',3'-Bis(2-chloroethyl)aminophosphoryl-3'-amino-3'-deoxyadenosine: a cyclic nucleotide with antitumor activity” (1979):
Converted amounts (≈) assume the structure as drawn.

Tests used:
KB = experiment: Cytotoxicity against human KB cells; format: functional
[1] = Anticancer activity against mouse LE1210 cells allografted in mouse at 0.625 mg/kg, ip relative to control; format: functional; settings: route intraperitoneal

SMILES | EC50 (KB; Homo sapiens, KB, read-out: ED50 (the source's name)) [µg/mL] | T/C [1] [%] | ED50 (KB) [µg/mL]
Nc1ncnc2c1ncn2[C@@H]1O[C@H](CO)[C@H]2NP(=O)(N(CCCl)CCCl)O[C@H]21 (single isomer, unassigned; isomer 1) | 1.1 (≈ 2.43 µM) | 101 | 
CN(C)c1ncnc2c1ncn2[C@@H]1O[C@H](CO)[C@H]2NP(=O)(N(CCCl)CCCl)O[C@H]21 (mixture of isomers) |  | 101 | 
Nc1ncnc2c1ncn2[C@@H]1O[C@H](CO)[C@H]2NP(=O)(N(CCCl)CCCl)O[C@H]21 (single isomer, unassigned; isomer 2) |  |  | 0.66 (≈ 1.46 µM)
